52 molecules from PubChem BioAssay AID1996 can be followed below.

SMILES strings stand for the structures. Values after ≈ are worked out from the molar mass of the structure shown.

The conditions of this series: buffer; pH 7.4; 200.0 µM.
The term kinetic solubility denotes solubility judged after dilution from a stock solution rather than from solid. `CN(C)C(=O)c1c(NC(=O)c2ccccc2)sc2c1CCC2` yielded a solubility (kinetic) of 42.9 µg/mL (≈ 136 µM).

The molecule `CC1=CC(C)(C)NC(=S)N1c1ccccc1C` returned a kinetic solubility of 13.6 µg/mL (≈ 55.2 µM).

Take `N=C1C(c2ccccc2)=C(O)CN1c1cccc2ccccc12`: the solubility (kinetic) is over 45.1 µg/mL.

`NC(=O)COC(=O)CSc1ccc2ccccc2c1`: the kinetic solubility was over 41.3 µg/mL.

For the molecule `O=S(=O)(NC1CCCCCCC1)c1ccc(F)cc1`, the kinetic solubility is over 42.8 µg/mL.

In the case of `Cn1c(=O)[nH]c(=O)c2c1nc1n2CCS1`, the kinetic solubility turned out to be 31 µg/mL (≈ 138 µM).

For `c1ccc(Nc2ncnc3sccc23)cc1`, the kinetic solubility was over 34.1 µg/mL.

`O=C(NC1CCCCC1)c1c2c(nc3ccccc13)CCC2` yielded a solubility (kinetic) of 25.9 µg/mL (≈ 88 µM).

In the case of `O=S(=O)(NCC1CCCO1)c1ccc(Cl)cc1` (configuration not stated), the solubility (kinetic) is 25.5 µg/mL (≈ 92.5 µM).

Regarding `CCOC(=O)C1CCN(C(C)C(=O)c2c[nH]c3ccccc23)CC1` (configuration not stated), the kinetic solubility is over 49.3 µg/mL.

Consider `Br.Oc1ccc(-c2cn3ccccc3n2)cc1`, for which the kinetic solubility was found to be 36.5 µg/mL.

In turn, `Cc1c(NS(=O)(=O)c2cc(C(=O)N3CCCC(C)C3)ccc2Cl)c(=O)n(-c2ccccc2)n1C` (configuration not stated) came in with a kinetic solubility of over 75.5 µg/mL.

`N#Cc1ccc(C(=O)OCC(=O)N2CCCC2)cc1`: the kinetic solubility is over 38.7 µg/mL.

`Cc1ccccc1C(=O)NNC(=O)c1ccc2nc[nH]c2c1` yielded a kinetic solubility of over 44.1 µg/mL.

The molecule `COc1ccccc1/C=C/C(=O)Nc1cccnc1Cl` returned a solubility (kinetic) of 2.7 µg/mL (≈ 9.35 µM).

For the molecule `Cc1cccc(C(=O)Nc2ccc(NC(=O)CN3CCOCC3)cc2)c1`, the kinetic solubility was 22.7 µg/mL (≈ 64.2 µM).

The molecule `O=C(O)CC1(CC(=O)N2CCC(C(=O)O)CC2)CCCC1` showed a kinetic solubility of 40.6 µg/mL (≈ 137 µM).

Take `COc1ccc(NC(=O)COC(=O)C2CCN(C(=O)c3ccc(Cl)cc3)CC2)c([N+](=O)[O-])c1`: the solubility (kinetic) was 22.4 µg/mL (≈ 47.1 µM).

`CCSc1ncc(Cl)c(C(=O)Nc2ccccc2OC)n1`: the solubility (kinetic) is under 0.2 µg/mL.

For the molecule `NS(=O)(=O)c1ccc(NC(=O)CNC(=O)c2ccc3c(c2)OCO3)cc1`, the solubility (kinetic) came out at 10 µg/mL (≈ 26.5 µM).

`O=C(CSc1cccc[n+]1[O-])c1cccs1` registered a kinetic solubility of 28 µg/mL (≈ 111 µM).

Take `c1ccc(CCNc2nc(-c3ccccn3)nc3ccccc23)cc1`: the solubility (kinetic) is 31.4 µg/mL (≈ 96.2 µM).

With `CCOC(=O)c1cnc(COc2ccc(OC)cc2)[nH]c1=O`, the solubility (kinetic) was found to be 44.7 µg/mL (≈ 147 µM).

`Cc1cc(C)c2c(CN3CCC(C)CC3)cc(=O)oc2c1C` gave a solubility (kinetic) of 1.1 µg/mL (≈ 3.67 µM).

With `NC(=O)c1ccc(C2SCC(=O)N2CCc2ccccc2)cc1` (configuration not stated), the kinetic solubility is over 49 µg/mL.

`Cc1ccc(NC(=S)NC(C)(C)C)c([N+](=O)[O-])c1`: the kinetic solubility came to 8.2 µg/mL (≈ 30.7 µM).

As to `Cn1ncc(Cl)c1C(=O)N1CCN(c2ccccc2)CC1`, the kinetic solubility was over 45.7 µg/mL.

Regarding `c1ccc(Oc2ncnc3sccc23)cc1`, the solubility (kinetic) stood at 25.1 µg/mL (≈ 110 µM).

Molecule `CC(=O)c1ccc(NC(=O)N2CCN(c3ccc(C)cc3)C(C)C2)cc1` (configuration not stated) came in with a solubility (kinetic) of 39.4 µg/mL (≈ 112 µM).

With `CCN(CC)C(=O)c1ccc(COc2ccc(Cl)c(C)c2)o1`, the kinetic solubility was 10.7 µg/mL (≈ 33.3 µM).

Molecule `COC(=O)c1sccc1NC(=S)N1C(C)CCCC1C` (configuration not stated) gave a kinetic solubility of 20.3 µg/mL (≈ 65 µM).

As for `O=S(=O)(c1ccc2c(c1)CCC2)N1CCNCC1`, the solubility (kinetic) is over 40 µg/mL.

In turn, `O=C(NCc1ccco1)c1ccc(NS(=O)(=O)c2cccc(F)c2)cc1` showed a solubility (kinetic) of over 56.2 µg/mL.

The molecule `CC(C)(C)NC(=O)COC(=O)c1c2c(nc3ccccc13)CCC2` had a kinetic solubility of 35.8 µg/mL (≈ 110 µM).

Take `Cn1c(=O)n(CCOc2ccc([N+](=O)[O-])cc2)c2ccccc21`: the kinetic solubility came out at 1.1 µg/mL (≈ 3.51 µM).

`Cc1ccccc1CC(=O)N1CCN(C(=O)c2ccco2)CC1`: the kinetic solubility was over 46.9 µg/mL.

In turn, `O=C(CN1CCOCC1)Nc1ccc2c(c1)CCC2` displayed a solubility (kinetic) of over 39.1 µg/mL.

`Cc1ccc(NC(=O)Cn2ccnc2)cc1C` had a solubility (kinetic) of 30.4 µg/mL (≈ 133 µM).

`CCN(CC)S(=O)(=O)c1ccc(N2CCOCC2)c(NC(=O)c2cc(Cl)c3c(c2)OCO3)c1` came in with a kinetic solubility of 5.2 µg/mL (≈ 10.5 µM).

In the case of `O=C(Nc1ccccc1C(=O)NC1CC1)c1ccccc1`, the kinetic solubility came to 16.7 µg/mL (≈ 59.6 µM).

In the case of `C=CCNc1nc(Cl)nc(NCc2ccco2)n1`, the kinetic solubility came out at 1.9 µg/mL (≈ 7.15 µM).

For `Cc1c(NC(=O)CN2CCCC(C)C2)ccc2nsnc12` (configuration not stated), the solubility (kinetic) worked out at 42.6 µg/mL (≈ 140 µM).

`COc1ccc([N+](=O)[O-])cc1NCC(=O)c1ccc(C)cc1` came in with a solubility (kinetic) of 14.2 µg/mL (≈ 47.3 µM).

The molecule `Cc1ccc(-c2cc(C(=O)N3CCN(c4ccc(O)cc4)CC3)c3ccccc3n2)cc1` came in with a kinetic solubility of 6.4 µg/mL (≈ 15.1 µM).

`COc1ccc(C(=O)Nc2ccc(CN3CCOCC3)cc2)cc1Br` returned a solubility (kinetic) of 14.1 µg/mL (≈ 34.8 µM).

`COc1ccc(N2Cc3ccc(OC)c(OC)c3C2=O)cc1`: the kinetic solubility is over 44.9 µg/mL.

Regarding `Cc1ccc(NC(=S)N(N)CCO)cc1`, the solubility (kinetic) is over 33.8 µg/mL.

The molecule `CC(C)COc1ccc(Br)cc1CNC(C)(C)C.Cl` yielded a solubility (kinetic) of 50.7 µg/mL.

`CCCN1CN=C(Nc2nc3ccccc3o2)NC1` gave a solubility (kinetic) of 18.9 µg/mL (≈ 72.9 µM).

`O=C(Nc1c[nH]c(=O)[nH]c1=O)c1cccc(F)c1` showed a kinetic solubility of 12.2 µg/mL (≈ 49 µM).

In turn, `Cc1ccc(C(=O)NCC(=O)Nc2ccc(F)c(F)c2F)cc1` had a kinetic solubility of 2.3 µg/mL (≈ 7.14 µM).

For the molecule `CC(C)(C)c1ccccc1NC(=O)NC1CCN(Cc2c(F)cccc2Cl)CC1`, the kinetic solubility is 0.5 µg/mL (≈ 1.2 µM).
